Here are results for 14 molecules from ChEMBL document CHEMBL3098031, “From NMDA receptor antagonists to discovery of selective σ₂ receptor ligands” (Bioorg Med Chem, 2014).

Broadly, the inhibition is how much of the control response was suppressed. One may read the Ki as a dissociation constant, usually derived from enzyme kinetics or from competition with a known ligand.

The target in experiment [1] is Glutamate receptor ionotropic, NMDA 2B (Rattus norvegicus) (UniProt Q00960). Description: Displacement of [3H]ifenprodil from Wistar rat cerebral cortex glutamate NMDA receptor GluN2B subunit at 10 uM after 120 mins by scintillation counting analysis. Format: tissue-based.
Sequence of Glutamate receptor ionotropic, NMDA 2B (Rattus norvegicus) (Q00960 27-1482 limits assumed): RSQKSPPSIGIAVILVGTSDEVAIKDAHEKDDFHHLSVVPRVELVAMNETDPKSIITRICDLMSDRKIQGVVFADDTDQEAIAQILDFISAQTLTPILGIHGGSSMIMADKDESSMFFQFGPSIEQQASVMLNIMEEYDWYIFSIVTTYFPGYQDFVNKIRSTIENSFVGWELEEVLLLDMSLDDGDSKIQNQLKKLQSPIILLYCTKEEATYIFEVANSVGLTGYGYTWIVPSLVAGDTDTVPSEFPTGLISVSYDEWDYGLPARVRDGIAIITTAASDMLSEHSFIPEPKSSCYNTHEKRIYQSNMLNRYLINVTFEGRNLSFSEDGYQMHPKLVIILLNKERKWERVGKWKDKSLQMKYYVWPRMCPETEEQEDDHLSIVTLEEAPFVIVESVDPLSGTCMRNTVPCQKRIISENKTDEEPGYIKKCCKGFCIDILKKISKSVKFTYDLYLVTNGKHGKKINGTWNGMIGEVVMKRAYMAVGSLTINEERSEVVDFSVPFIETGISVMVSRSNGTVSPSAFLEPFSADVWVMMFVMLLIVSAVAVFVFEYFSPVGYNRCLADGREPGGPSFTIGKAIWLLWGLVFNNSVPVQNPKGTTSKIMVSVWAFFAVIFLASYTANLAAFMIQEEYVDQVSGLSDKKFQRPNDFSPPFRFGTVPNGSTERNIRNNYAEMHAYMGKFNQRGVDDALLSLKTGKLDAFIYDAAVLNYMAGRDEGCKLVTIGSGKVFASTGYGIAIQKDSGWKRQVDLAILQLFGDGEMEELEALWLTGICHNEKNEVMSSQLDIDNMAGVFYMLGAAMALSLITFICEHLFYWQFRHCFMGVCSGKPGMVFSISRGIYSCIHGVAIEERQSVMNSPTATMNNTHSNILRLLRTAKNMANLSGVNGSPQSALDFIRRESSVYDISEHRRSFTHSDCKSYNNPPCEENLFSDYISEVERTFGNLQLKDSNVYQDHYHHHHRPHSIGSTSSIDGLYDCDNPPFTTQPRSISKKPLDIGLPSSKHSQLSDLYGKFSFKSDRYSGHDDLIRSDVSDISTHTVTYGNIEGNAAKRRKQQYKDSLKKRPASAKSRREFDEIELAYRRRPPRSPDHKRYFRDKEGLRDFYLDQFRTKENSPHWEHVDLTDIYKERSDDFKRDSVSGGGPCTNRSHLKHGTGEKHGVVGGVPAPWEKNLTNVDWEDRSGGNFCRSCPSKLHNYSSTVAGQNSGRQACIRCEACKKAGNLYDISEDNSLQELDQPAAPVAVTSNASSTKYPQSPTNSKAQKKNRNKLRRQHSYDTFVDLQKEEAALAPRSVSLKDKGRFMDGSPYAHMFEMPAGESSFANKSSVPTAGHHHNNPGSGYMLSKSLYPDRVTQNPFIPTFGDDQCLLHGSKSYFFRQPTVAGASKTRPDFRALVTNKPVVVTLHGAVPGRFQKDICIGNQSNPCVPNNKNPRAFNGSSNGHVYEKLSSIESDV
Experiment [2] can be described thus: Displacement of [3H]DTG from guinea pig brain sigma2 receptor after 120 mins by scintillation counting analysis in presence of SKF10,047. Also noted: species or system Cavia porcellus.
Another experiment is filed under the species Cavia porcellus. Description: Selectivity ratio of Ki for guinea pig brain sigma1 receptor to Ki for guinea pig brain sigma2 receptor.
Experiment [3] has as its target Sigma non-opioid intracellular receptor 1 (Cavia porcellus, UniProt Q60492). Description: Displacement of [3H]-(+)-pentazocine from guinea pig brain sigma1 receptor after 150 mins by scintillation counting analysis.
In experiment [4] the target is Glutamate receptor ionotropic, NMDA 2B (Rattus norvegicus, UniProt Q00960). Put plainly: Displacement of [3H]ifenprodil from Wistar rat cerebral cortex glutamate NMDA receptor GluN2B subunit after 120 mins by scintillation counting analysis. In kind it is tissue-based. A general note: Loss of bound radioactivity is the signal in a displacement assay; it reports binding, not function.
Sequence of Glutamate receptor ionotropic, NMDA 2B (Q00960 whole entry): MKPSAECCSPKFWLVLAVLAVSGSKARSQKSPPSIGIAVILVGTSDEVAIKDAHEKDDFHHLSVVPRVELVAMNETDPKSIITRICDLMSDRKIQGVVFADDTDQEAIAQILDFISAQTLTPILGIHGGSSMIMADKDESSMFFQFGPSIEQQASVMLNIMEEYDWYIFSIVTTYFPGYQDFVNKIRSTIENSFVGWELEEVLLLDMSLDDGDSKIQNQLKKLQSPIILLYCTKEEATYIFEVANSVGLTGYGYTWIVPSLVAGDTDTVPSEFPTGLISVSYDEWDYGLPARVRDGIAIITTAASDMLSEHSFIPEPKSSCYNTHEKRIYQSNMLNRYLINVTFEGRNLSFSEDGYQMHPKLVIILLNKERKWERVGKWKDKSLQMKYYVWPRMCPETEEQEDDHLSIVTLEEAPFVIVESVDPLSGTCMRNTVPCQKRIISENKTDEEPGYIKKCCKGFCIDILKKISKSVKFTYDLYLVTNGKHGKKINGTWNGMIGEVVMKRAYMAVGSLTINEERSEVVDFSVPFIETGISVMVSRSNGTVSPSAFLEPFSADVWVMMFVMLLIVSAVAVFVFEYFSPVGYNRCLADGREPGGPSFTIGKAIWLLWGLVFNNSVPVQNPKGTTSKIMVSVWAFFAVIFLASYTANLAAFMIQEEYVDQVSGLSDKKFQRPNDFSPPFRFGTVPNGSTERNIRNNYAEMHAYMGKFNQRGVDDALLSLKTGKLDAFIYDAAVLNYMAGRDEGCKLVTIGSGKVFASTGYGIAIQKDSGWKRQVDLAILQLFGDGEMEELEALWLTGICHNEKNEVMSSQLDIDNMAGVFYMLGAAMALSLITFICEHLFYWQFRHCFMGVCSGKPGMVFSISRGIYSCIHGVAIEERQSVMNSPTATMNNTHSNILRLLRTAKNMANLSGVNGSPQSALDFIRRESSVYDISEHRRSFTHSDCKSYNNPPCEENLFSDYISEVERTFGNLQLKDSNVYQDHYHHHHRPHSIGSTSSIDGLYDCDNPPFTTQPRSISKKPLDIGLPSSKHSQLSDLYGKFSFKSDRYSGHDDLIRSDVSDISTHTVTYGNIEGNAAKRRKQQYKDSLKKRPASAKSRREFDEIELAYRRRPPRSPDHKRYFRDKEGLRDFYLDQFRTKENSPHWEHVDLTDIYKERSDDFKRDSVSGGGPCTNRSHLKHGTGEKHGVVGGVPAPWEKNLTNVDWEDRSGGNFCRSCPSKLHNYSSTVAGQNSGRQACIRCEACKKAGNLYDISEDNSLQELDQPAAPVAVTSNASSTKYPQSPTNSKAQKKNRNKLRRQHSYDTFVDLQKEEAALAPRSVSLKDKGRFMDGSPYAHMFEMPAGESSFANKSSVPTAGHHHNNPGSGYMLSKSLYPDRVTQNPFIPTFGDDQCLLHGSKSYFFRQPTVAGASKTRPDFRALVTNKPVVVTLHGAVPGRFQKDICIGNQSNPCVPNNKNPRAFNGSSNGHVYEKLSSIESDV

Active and inactive are the calls of the source. The rule behind the calls is not given here.

Sequence of Sigma non-opioid intracellular receptor 1 (Q60492 whole entry): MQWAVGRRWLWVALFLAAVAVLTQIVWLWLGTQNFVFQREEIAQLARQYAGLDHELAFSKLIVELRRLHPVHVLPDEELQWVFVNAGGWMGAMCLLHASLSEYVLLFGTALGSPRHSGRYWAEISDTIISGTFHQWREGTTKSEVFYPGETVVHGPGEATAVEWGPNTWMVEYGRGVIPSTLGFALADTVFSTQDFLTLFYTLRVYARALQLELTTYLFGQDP

In turn, `CC(=O)C1(c2ccccc2)CCN(CC(=O)c2c[nH]c3ccc(O)cc23)CC1` came in with an inhibition in experiment [1] of 6%.

`O=C(CN1CCC(c2ccccc2)CC1)c1c[nH]c2ccc(O)cc12` yielded an inhibition in experiment [1] of 51%. The figures for the Ki in experiment [2] and in experiment [3] were 224 nM and 2680 nM, respectively. The Ratio Ki in the experiment listed under Cavia porcellus is 12.

Turning to `COc1ccc2[nH]cc(C(=O)CN3CCC(Cc4ccccc4)CC3)c2c1`, the inhibition in experiment [1] came to 86%. For the same molecule, the results for the Ki in experiment [2], in experiment [4] and in experiment [3] were 10 nM, 1670 nM and over 5000 nM, respectively. The Ratio Ki in the experiment listed under Cavia porcellus is over 500.

Consider `O=C(CN1CCC(Cc2ccccc2)CC1)c1c[nH]c2ccc(O)cc12`, for which the inhibition in experiment [1] turned out to be 92%. Moreover, the inhibitory constant (Ki) in experiment [2] was 76.5 nM; in experiment [3] it was 4730 nM. The Ratio Ki in the experiment filed under Cavia porcellus was found to be 61.9.

In experiment [1], `O=C(CN1CCC(O)(c2ccc(Br)cc2)CC1)c1c[nH]c2ccc(O)cc12` registered an inhibition of 40%. Further, the Ki is 57 nM in experiment [2] and 185 nM in experiment [3]. In the experiment listed under Cavia porcellus, the Ratio Ki amounted to 3.2.

Molecule `COc1ccc2[nH]cc(C(=O)CN3CCC(c4ccccc4)CC3)c2c1` yielded an inhibition in experiment [1] of 8%. Moreover, the Ki turned out to be 20 nM in experiment [2] and 1910 nM in experiment [3]. In addition, in the experiment filed under Cavia porcellus, the Ratio Ki was determined as 95.5.

Molecule `COc1ccc2[nH]cc(C(=O)CN3CCC(O)(c4ccccc4)CC3)c2c1` came in with an inhibition in experiment [1] of 11%. In addition, the figures for the Ki in experiment [2] and in experiment [3] were 21 nM and 103 nM, respectively. Besides, the Ratio Ki in the experiment filed under Cavia porcellus was found to be 5.

Consider `COc1ccc2[nH]cc(C(=O)CN3CCC(C(C)=O)(c4ccccc4)CC3)c2c1`, for which the inhibition entry in experiment [1] was “inactive”.

For `O=C(CN1CCC(O)(c2ccc(Cl)cc2)CC1)c1c[nH]c2ccc(O)cc12`, the inhibition in experiment [1] was 26%. Also, the Ki in experiment [2] stood at 47 nM; in experiment [3] it was 557 nM. Further, the Ratio Ki in the experiment listed under Cavia porcellus amounted to 11.9.

As for `N#CC1(c2ccccc2)CCN(CC(=O)c2c[nH]c3ccc(O)cc23)CC1`, in experiment [1], the inhibition came out at 16%.

Molecule `O=C(CN1CCC(O)(c2ccccc2)CC1)c1c[nH]c2ccc(O)cc12` gave an inhibition in experiment [1] of 32%. Besides, the Ki came out at 658 nM in experiment [2] and 3080 nM in experiment [3]. Moreover, in the experiment listed under Cavia porcellus, the Ratio Ki is 4.7.

As for `COc1ccc2[nH]cc(C(=O)CN3CCC(O)(c4ccc(Br)cc4)CC3)c2c1`, in experiment [1], the inhibition is 5%. Also, the Ki in experiment [2] is 10 nM; in experiment [3], 60 nM. Moreover, the Ratio Ki in the experiment filed under Cavia porcellus worked out at 6.

For the molecule `COc1ccc2[nH]cc(C(=O)CN3CCC(O)(c4ccc(Cl)cc4)CC3)c2c1`, in experiment [1], the inhibition is 15%. Also, the values for the Ki in experiment [2] and in experiment [3] were 7.5 nM and 78.5 nM, respectively. Besides, the Ratio Ki in the experiment listed under Cavia porcellus amounted to 10.5.

Molecule `COc1ccc2[nH]cc(C(=O)CN3CCC(C#N)(c4ccccc4)CC3)c2c1` gave an inhibition in experiment [1] of 11%.
